Data set [1] concerns primary adult human bone marrow cells. Briefly: Colony-formation (CFU-GM) assay. Conditions: 85 μM, 100 μM, 150 μM. The format is cell-based.
In the next data set the test system is N1E-115 cells. Nature of the data set: Time-lapse microscopy, mitotic fate. The format is cell-based, mouse. Here is the method: Therefore, we interrogated cell division in N1E-115 cells using time-lapse imaging for further validation of target engagement. Treatment with 200 μM CW069 did indeed induce multipolar anaphase formation in N1E-115 cells (48%; Figure 5A) compared with the DMSO control (0%; Figure 5A). […] This is consistent with a previous report that catastrophic aneuploidy associated with multipolar divisions prompted cell death ([Kwon et al., 2008]). In order to corroborate selective inhibition of HSET by CW069 in cells, we treated HSET siRNA-depleted cells with 200 μM CW069 and compared them with DMSO/control siRNA-, DMSO/HSET siRNA-, and CW069/control siRNA-treated cells (Figure 5D).
Cells were synchronized in G2-M by incubation at 37°C and 5% CO2 for 24 hr with 9 μM of the CDK1 inhibitor RO-3306 (Merck). Cells were released by removal of the RO-3306 and four washings of 10 min each, at 37°C, with prewarmed culture media + 10% FBS. N1E-115 cells were transfected with siRNA (Supplemental Experimental Procedures) and imaged from 6 hr after transfection. Some RO-3306-synchronized cells were released with 200 μM CW069, 100 μM monastrol, or 0.2% DMSO, and imaging started immediately or 1 hr after treatment. Imaging was carried out for 24 hr, or for 4 hr in the case of the CW069/monastrol cotreatment. Imaging was conducted every 5 min in a humidified chamber with 37°C and 5% CO2, using a Nikon Eclipse TE2000-E microscope, and analyzed with NIS-Elements software (Nikon, Tokyo, Japan). The morphology of cells in mitosis and the mitotic fate (bipolar division, multipolar division, or cell death) were analyzed.

For `O=C(O)c1cc(I)ccc1NC(=O)[C@H](Cc1ccccc1)NCc1ccccc1` [CW069], the clonogenic capacity entry in data set [1] was “did not reduce the clonogenic capacity”. Moreover, in the data set with N1E-115 cells (N1E-115, 200 μM), the “fate of daughter cells after aberrant divisions” value was “the majority of daughter cells underwent apoptosis”. The same compound returned a multipolar anaphase formation in the data set on N1E-115 cells (N1E-115, 200 μM CW069, DMSO control 0% (Figure 5A)) of 48%. Besides, the multipolar anaphases in the data set with N1E-115 cells (N1E-115, siRNA plus 200 μM CW069 or DMSO, DMSO/control siRNA 11% (Figure 5D)) turned out to be 57%.
